Earlier results, collected in patent publication US7756644B2, “System and method for automated selection of T-cell epitopes” (priority 2005, dated 2010).

System: memory T-cells isolated from HLA-B7-positive EBV-seropositive individuals
Details: PNAS 1999

Row | Sequence | recognition by memory T-cells / immunogenicity
1 | QPRAPIRPI (EBNA 3C.881 peptide from Epstein-Barr virus) | is not
2 | RPPIFIRRL [EBNA 3A.379] | recognized
